From PubChem BioAssay AID1918994 (Molecular Pharmacology Branch, DTP, NCI, 2023)

System: 292921-168-R-J2-PDC complex spheroid growth
Assay: Anticancer human tumor 292921-168-R-J2-PDC patient-derived pancreatic carcinoma cell line growth inhibition [AhR]
Settings: curve of first compound; second compound 0.1 µM
Method in brief: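 Agents were dosed in half-log steps down from roughly clinical Cmax, or from 10 microM where Cmax was unknown, alone and with AhR antagonists. Read-out: percent test/control growth of tumor spheroids containing HUVEC and MSC stromal cells.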
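Note: spheroids exposed to compounds for seven days after three days of growth.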

Question: `CC(C)CC(NC(=O)C(Cc1ccccc1)NC(=O)c1cnccn1)B(O)O` (configuration not stated) + Cc1ccccc1N=Nc1ccc(NC(=O)c2ccnn2C)c(C)c1 was tested. Which IC50 did it give?
Answer: 6.4 nM

Question: With `CCc1c2c(nc3ccc(O)cc13)-c1cc3c(c(=O)n1C2)COC(=O)[C@]3(O)CC` + Cc1ccccc1N=Nc1ccc(NC(=O)c2ccnn2C)c(C)c1 as the molecule, how does the IC50 read?
Answer: 3.86 nM

Question: For `COc1cc(Nc2ncc3c(n2)-c2ccc(Cl)cc2C(c2c(F)cccc2OC)=NC3)ccc1C(=O)O` + Cc1ccccc1N=Nc1ccc(NC(=O)c2ccnn2C)c(C)c1, which IC50 is on record?
Answer: < 31.6 nM

Question: For `Nc1ccccc1NC(=O)c1ccc(CNC(=O)OCc2cccnc2)cc1` + Cc1ccccc1N=Nc1ccc(NC(=O)c2ccnn2C)c(C)c1, which IC50 is on record?
Answer: 539 nM

Question: Which IC50 does the source give for `O=C(C=Cc1cccc(S(=O)(=O)Nc2ccccc2)c1)NO` + Cc1ccccc1N=Nc1ccc(NC(=O)c2ccnn2C)c(C)c1 here?
Answer: 579 nM

Question: Which IC50 does the source give for `O=C(c1cc(Cc2n[nH]c(=O)c3ccccc23)ccc1F)N1CCN(C(=O)C2CC2)CC1` + Cc1ccccc1N=Nc1ccc(NC(=O)c2ccnn2C)c(C)c1 here?
Answer: > 10000 nM

Same assay, conditions: curve of first compound; second compound 0.316 µM

Question: For `CC(C)CC(NC(=O)C(Cc1ccccc1)NC(=O)c1cnccn1)B(O)O` (configuration not stated) + Cc1ccccc1N=Nc1ccc(NC(=O)c2ccnn2C)c(C)c1, which IC50 is on record?
Answer: 6.09 nM

Question: How did the IC50 turn out when `CCc1c2c(nc3ccc(O)cc13)-c1cc3c(c(=O)n1C2)COC(=O)[C@]3(O)CC` + Cc1ccccc1N=Nc1ccc(NC(=O)c2ccnn2C)c(C)c1 was run?
Answer: 3.56 nM

Question: Which IC50 does the source give for `COc1cc(Nc2ncc3c(n2)-c2ccc(Cl)cc2C(c2c(F)cccc2OC)=NC3)ccc1C(=O)O` + Cc1ccccc1N=Nc1ccc(NC(=O)c2ccnn2C)c(C)c1 here?
Answer: < 31.6 nM

Question: How did the IC50 turn out when `Nc1ccccc1NC(=O)c1ccc(CNC(=O)OCc2cccnc2)cc1` + Cc1ccccc1N=Nc1ccc(NC(=O)c2ccnn2C)c(C)c1 was run?
Answer: 612 nM

Question: For `O=C(C=Cc1cccc(S(=O)(=O)Nc2ccccc2)c1)NO` + Cc1ccccc1N=Nc1ccc(NC(=O)c2ccnn2C)c(C)c1, which IC50 is on record?
Answer: 697 nM

Question: For `O=C(c1cc(Cc2n[nH]c(=O)c3ccccc23)ccc1F)N1CCN(C(=O)C2CC2)CC1` + Cc1ccccc1N=Nc1ccc(NC(=O)c2ccnn2C)c(C)c1, which IC50 is on record?
Answer: > 10000 nM

Same assay, conditions: curve of first compound; second compound 1 µM

Question: `CC(C)CC(NC(=O)C(Cc1ccccc1)NC(=O)c1cnccn1)B(O)O` (configuration not stated) + Cc1ccccc1N=Nc1ccc(NC(=O)c2ccnn2C)c(C)c1 was tested. Which IC50 did it give?
Answer: 5.95 nM

Question: With `CCc1c2c(nc3ccc(O)cc13)-c1cc3c(c(=O)n1C2)COC(=O)[C@]3(O)CC` + Cc1ccccc1N=Nc1ccc(NC(=O)c2ccnn2C)c(C)c1 as the molecule, how does the IC50 read?
Answer: 3.34 nM

Question: How did the IC50 turn out when `COc1cc(Nc2ncc3c(n2)-c2ccc(Cl)cc2C(c2c(F)cccc2OC)=NC3)ccc1C(=O)O` + Cc1ccccc1N=Nc1ccc(NC(=O)c2ccnn2C)c(C)c1 was run?
Answer: < 31.6 nM

Question: With `Nc1ccccc1NC(=O)c1ccc(CNC(=O)OCc2cccnc2)cc1` + Cc1ccccc1N=Nc1ccc(NC(=O)c2ccnn2C)c(C)c1 as the molecule, how does the IC50 read?
Answer: 277 nM

Question: For `O=C(C=Cc1cccc(S(=O)(=O)Nc2ccccc2)c1)NO` + Cc1ccccc1N=Nc1ccc(NC(=O)c2ccnn2C)c(C)c1, which IC50 is on record?
Answer: 520 nM

Question: `O=C(c1cc(Cc2n[nH]c(=O)c3ccccc23)ccc1F)N1CCN(C(=O)C2CC2)CC1` + Cc1ccccc1N=Nc1ccc(NC(=O)c2ccnn2C)c(C)c1 was tested. Which IC50 did it give?
Answer: > 10000 nM

Same assay, conditions: curve of first compound; second compound 3.16 µM

Question: With `CC(C)CC(NC(=O)C(Cc1ccccc1)NC(=O)c1cnccn1)B(O)O` (configuration not stated) + Cc1ccccc1N=Nc1ccc(NC(=O)c2ccnn2C)c(C)c1 as the molecule, how does the IC50 read?
Answer: 5.13 nM

Question: Which IC50 does the source give for `CCc1c2c(nc3ccc(O)cc13)-c1cc3c(c(=O)n1C2)COC(=O)[C@]3(O)CC` + Cc1ccccc1N=Nc1ccc(NC(=O)c2ccnn2C)c(C)c1 here?
Answer: 1.37 nM

Question: `COc1cc(Nc2ncc3c(n2)-c2ccc(Cl)cc2C(c2c(F)cccc2OC)=NC3)ccc1C(=O)O` + Cc1ccccc1N=Nc1ccc(NC(=O)c2ccnn2C)c(C)c1 was tested. Which IC50 did it give?
Answer: < 31.6 nM

Question: `Nc1ccccc1NC(=O)c1ccc(CNC(=O)OCc2cccnc2)cc1` + Cc1ccccc1N=Nc1ccc(NC(=O)c2ccnn2C)c(C)c1 was tested. Which IC50 did it give?
Answer: 229 nM

Question: How did the IC50 turn out when `O=C(C=Cc1cccc(S(=O)(=O)Nc2ccccc2)c1)NO` + Cc1ccccc1N=Nc1ccc(NC(=O)c2ccnn2C)c(C)c1 was run?
Answer: 285 nM

Question: Which IC50 does the source give for `O=C(c1cc(Cc2n[nH]c(=O)c3ccccc23)ccc1F)N1CCN(C(=O)C2CC2)CC1` + Cc1ccccc1N=Nc1ccc(NC(=O)c2ccnn2C)c(C)c1 here?
Answer: > 10000 nM

Same assay, conditions: curve of first compound; second compound 10 µM

Question: For `CC(C)CC(NC(=O)C(Cc1ccccc1)NC(=O)c1cnccn1)B(O)O` (configuration not stated) + Cc1ccccc1N=Nc1ccc(NC(=O)c2ccnn2C)c(C)c1, which IC50 is on record?
Answer: 3.97 nM

Question: Which IC50 does the source give for `CCc1c2c(nc3ccc(O)cc13)-c1cc3c(c(=O)n1C2)COC(=O)[C@]3(O)CC` + Cc1ccccc1N=Nc1ccc(NC(=O)c2ccnn2C)c(C)c1 here?
Answer: < 0.949 nM

Question: For `COc1cc(Nc2ncc3c(n2)-c2ccc(Cl)cc2C(c2c(F)cccc2OC)=NC3)ccc1C(=O)O` + Cc1ccccc1N=Nc1ccc(NC(=O)c2ccnn2C)c(C)c1, which IC50 is on record?
Answer: < 31.6 nM

Question: `Nc1ccccc1NC(=O)c1ccc(CNC(=O)OCc2cccnc2)cc1` + Cc1ccccc1N=Nc1ccc(NC(=O)c2ccnn2C)c(C)c1 was tested. Which IC50 did it give?
Answer: < 31.6 nM

Question: Which IC50 does the source give for `O=C(C=Cc1cccc(S(=O)(=O)Nc2ccccc2)c1)NO` + Cc1ccccc1N=Nc1ccc(NC(=O)c2ccnn2C)c(C)c1 here?
Answer: < 31.6 nM

Question: For `O=C(c1cc(Cc2n[nH]c(=O)c3ccccc23)ccc1F)N1CCN(C(=O)C2CC2)CC1` + Cc1ccccc1N=Nc1ccc(NC(=O)c2ccnn2C)c(C)c1, which IC50 is on record?
Answer: 4550 nM

Same assay, conditions: second compound 0.1 µM; first compound 0.000949 µM; stronger effect = lower value

Question: `CC(C)CC(NC(=O)C(Cc1ccccc1)NC(=O)c1cnccn1)B(O)O` (configuration not stated) + Cc1ccccc1N=Nc1ccc(NC(=O)c2ccnn2C)c(C)c1 was tested. Which viability, T/C did it give?
Answer: 91.6%

Question: For `CCc1c2c(nc3ccc(O)cc13)-c1cc3c(c(=O)n1C2)COC(=O)[C@]3(O)CC` + Cc1ccccc1N=Nc1ccc(NC(=O)c2ccnn2C)c(C)c1, which viability, T/C is on record?
Answer: 78.2%

Same assay, conditions: second compound 0.1 µM; first compound 0.003 µM; stronger effect = lower value

Question: How did the viability, T/C turn out when `CC(C)CC(NC(=O)C(Cc1ccccc1)NC(=O)c1cnccn1)B(O)O` (configuration not stated) + Cc1ccccc1N=Nc1ccc(NC(=O)c2ccnn2C)c(C)c1 was run?
Answer: 110%

Question: For `CCc1c2c(nc3ccc(O)cc13)-c1cc3c(c(=O)n1C2)COC(=O)[C@]3(O)CC` + Cc1ccccc1N=Nc1ccc(NC(=O)c2ccnn2C)c(C)c1, which viability, T/C is on record?
Answer: 58.5%

Same assay, conditions: second compound 0.1 µM; first compound 0.00949 µM; stronger effect = lower value

Question: Which viability, T/C does the source give for `CC(C)CC(NC(=O)C(Cc1ccccc1)NC(=O)c1cnccn1)B(O)O` (configuration not stated) + Cc1ccccc1N=Nc1ccc(NC(=O)c2ccnn2C)c(C)c1 here?
Answer: 23.4%

Question: How did the viability, T/C turn out when `CCc1c2c(nc3ccc(O)cc13)-c1cc3c(c(=O)n1C2)COC(=O)[C@]3(O)CC` + Cc1ccccc1N=Nc1ccc(NC(=O)c2ccnn2C)c(C)c1 was run?
Answer: 20%

Same assay, conditions: second compound 0.1 µM; first compound 0.03 µM; stronger effect = lower value

Question: With `CC(C)CC(NC(=O)C(Cc1ccccc1)NC(=O)c1cnccn1)B(O)O` (configuration not stated) + Cc1ccccc1N=Nc1ccc(NC(=O)c2ccnn2C)c(C)c1 as the molecule, how does the viability, T/C read?
Answer: 1.67%

Question: Which viability, T/C does the source give for `CCc1c2c(nc3ccc(O)cc13)-c1cc3c(c(=O)n1C2)COC(=O)[C@]3(O)CC` + Cc1ccccc1N=Nc1ccc(NC(=O)c2ccnn2C)c(C)c1 here?
Answer: 7.99%

Same assay, conditions: second compound 0.1 µM; first compound 0.0316 µM; stronger effect = lower value

Question: `COc1cc(Nc2ncc3c(n2)-c2ccc(Cl)cc2C(c2c(F)cccc2OC)=NC3)ccc1C(=O)O` + Cc1ccccc1N=Nc1ccc(NC(=O)c2ccnn2C)c(C)c1 was tested. Which viability, T/C did it give?
Answer: 45.7%

Question: With `Nc1ccccc1NC(=O)c1ccc(CNC(=O)OCc2cccnc2)cc1` + Cc1ccccc1N=Nc1ccc(NC(=O)c2ccnn2C)c(C)c1 as the molecule, how does the viability, T/C read?
Answer: 66.5%

Question: With `O=C(C=Cc1cccc(S(=O)(=O)Nc2ccccc2)c1)NO` + Cc1ccccc1N=Nc1ccc(NC(=O)c2ccnn2C)c(C)c1 as the molecule, how does the viability, T/C read?
Answer: 69%

Question: With `O=C(c1cc(Cc2n[nH]c(=O)c3ccccc23)ccc1F)N1CCN(C(=O)C2CC2)CC1` + Cc1ccccc1N=Nc1ccc(NC(=O)c2ccnn2C)c(C)c1 as the molecule, how does the viability, T/C read?
Answer: 80%

Same assay, conditions: second compound 0.1 µM; first compound 0.0949 µM; stronger effect = lower value

Question: For `CC(C)CC(NC(=O)C(Cc1ccccc1)NC(=O)c1cnccn1)B(O)O` (configuration not stated) + Cc1ccccc1N=Nc1ccc(NC(=O)c2ccnn2C)c(C)c1, which viability, T/C is on record?
Answer: 0.43%

Question: For `CCc1c2c(nc3ccc(O)cc13)-c1cc3c(c(=O)n1C2)COC(=O)[C@]3(O)CC` + Cc1ccccc1N=Nc1ccc(NC(=O)c2ccnn2C)c(C)c1, which viability, T/C is on record?
Answer: 5.02%

Same assay, conditions: second compound 0.1 µM; first compound 0.1 µM; stronger effect = lower value

Question: For `COc1cc(Nc2ncc3c(n2)-c2ccc(Cl)cc2C(c2c(F)cccc2OC)=NC3)ccc1C(=O)O` + Cc1ccccc1N=Nc1ccc(NC(=O)c2ccnn2C)c(C)c1, which viability, T/C is on record?
Answer: 37.9%

Question: For `Nc1ccccc1NC(=O)c1ccc(CNC(=O)OCc2cccnc2)cc1` + Cc1ccccc1N=Nc1ccc(NC(=O)c2ccnn2C)c(C)c1, which viability, T/C is on record?
Answer: 65.1%

Question: How did the viability, T/C turn out when `O=C(C=Cc1cccc(S(=O)(=O)Nc2ccccc2)c1)NO` + Cc1ccccc1N=Nc1ccc(NC(=O)c2ccnn2C)c(C)c1 was run?
Answer: 64%

Question: For `O=C(c1cc(Cc2n[nH]c(=O)c3ccccc23)ccc1F)N1CCN(C(=O)C2CC2)CC1` + Cc1ccccc1N=Nc1ccc(NC(=O)c2ccnn2C)c(C)c1, which viability, T/C is on record?
Answer: 84.9%

Same assay, conditions: second compound 0.1 µM; first compound 0.3 µM; stronger effect = lower value

Question: `CC(C)CC(NC(=O)C(Cc1ccccc1)NC(=O)c1cnccn1)B(O)O` (configuration not stated) + Cc1ccccc1N=Nc1ccc(NC(=O)c2ccnn2C)c(C)c1 was tested. Which viability, T/C did it give?
Answer: 0.32%

Question: How did the viability, T/C turn out when `CCc1c2c(nc3ccc(O)cc13)-c1cc3c(c(=O)n1C2)COC(=O)[C@]3(O)CC` + Cc1ccccc1N=Nc1ccc(NC(=O)c2ccnn2C)c(C)c1 was run?
Answer: 2.76%

Same assay, conditions: second compound 0.1 µM; first compound 0.316 µM; stronger effect = lower value

Question: Which viability, T/C does the source give for `COc1cc(Nc2ncc3c(n2)-c2ccc(Cl)cc2C(c2c(F)cccc2OC)=NC3)ccc1C(=O)O` + Cc1ccccc1N=Nc1ccc(NC(=O)c2ccnn2C)c(C)c1 here?
Answer: 53.5%

Question: Which viability, T/C does the source give for `Nc1ccccc1NC(=O)c1ccc(CNC(=O)OCc2cccnc2)cc1` + Cc1ccccc1N=Nc1ccc(NC(=O)c2ccnn2C)c(C)c1 here?
Answer: 57%
